Measured values taken from patent publication US20020052316A1, “Bax-mediated apoptosis modulating reagents and methods” (priority 1998, published 2002).
Residues, ends and D or L forms follow the SMILES beside them. *: point of attachment. Cbz = O=C(OCc1ccccc1)*; CH2F = FC*

Columns and labels:
FL5.12 cells = experiment: BAX integration into mitochondrial membrane of FL5.12 cells after IL-3 withdrawal (alkali extraction, anti-BAX Western blot); type: cell-based; conditions: FL5.12 cells deprived of IL-3 for 12 hours, 50 mM zVAD-fmk
Method: In the absence of a death signal during apoptosis of a cell, BAX is found free in the cytosol of the cell or is peripherally associated with endocellular membrane surfaces. We performed a Western blotting analysis of mitochondrial membranes from FL5.12 cells, immunoblotting anti-BAX antibodies (antibodies commercially available from, for example, Santa Cruz Biotech., Santa Cruz, Calif.; FIG. 1). Briefly, the mitochondrial fraction was prepared from FL5.12 cells maintained in IL-3 (FIG. 1, lanes 1, 2, 5, and 6) or deprived of IL-3 for 12 hours (FIG. 1, lanes 3, 4, 7, and 8), in the absence (FIG. 1, lanes 1, 3, 5, and 7) or presence (FIG. 1, lanes 2, 4, 6, and 8) of […] zVAD-fmk for 12 hours by centrifuging at 200,000×g for 45 min. to yield supernatant and pellet fractions (the pellet fraction contains the mitochondrial membranes). The mitochondrial fractions were analyzed either directly (FIG. 1, lanes 1-4) or following extraction with 0.1 M Na2CO3, pH 11.5 (FIG. 1, lanes 5-8).
Cells were collected, washed twice with phosphate buffered saline, suspended in 2 ml HIM buffer (0.2% w/v BSA, 200 mM mannitol, 70 mM sucrose, 10 mM HEPES-KOH, 1 mM EGTA, pH 7.5), and subjected to homogenization with a Polytron homogenizer (Brinkmann Instruments Inc., Westbury, N.Y.) for 4 bursts of 10 seconds each at a setting of 6.5. All subsequent steps were conducted at 4° C. […]

[1] = system: intact mitochondria isolated from rat heart; experiment: Mitochondrial protein targeting in vitro (35S-labelled reticulocyte lysate translation products, alkali-resistant insertion); type: biochemical; parameters: BAX targeting supported by apoptotic high speed cytosol / mitochondrial membrane insertion of BAX with additional cytochrome c: dose or concentration left out as unconfirmed
From the text: To examine targeting of BAX into mitochondria in vitro, we employed the ^35S-labelled transcription-translation product of BAX cDNA in rabbit reticulocyte lysate combined with intact mitochondria isolated from rat heart. This is a well documented system that faithfully reflects in vivo import of diverse mitochondrial proteins, including the insertion of integral proteins into the mitochondrial outer membrane (Li and Shore, Science 256:1815-1817, 1992; McBride et al., J. Cell Biol. 119:1451-1457, 1992).
The results of our investigation as to whether or not apoptotic cell extract supports BAX targeting to mitochondria in vitro are presented in FIGS. 3A-3D. Briefly, in the experiments were conducted as follows. In FIG. 3A, ^35S-labeled transcription-translation products of BAX cDNA in rabbit reticulocyte lysate (BAX and BAXΔART) were incubated with purified, intact mitochondria from rat heart in a standard protein import reaction supplemented with 1 mM dATP (FIG. 3A, lanes 3, 4, 6, and 7) or 1 mM dATP and […] apoptotic cytosol protein (Extract) (FIG. 3A, lanes 4 and 7), in a volume of […]. At the end of the reaction, mitochondria were recovered by centrifugation and the pellets analyzed by SDS PAGE and fluorography either directly or after extraction with […], pH 11.5 (Alkali) (FIG. 3A, lanes 5-7).
The heart of one male Sprague Dawley rat (approximately 250 grams) was placed in approximately 100 ml HIM buffer (0.2% w/v BSA, 200 mM mannitol, 70 mM sucrose, 10 mM HEPES-KOH, 1 mM EGTA, pH 7.5) on ice, squeezed several times to force out blood, and transferred to 7.5 ml HIM in a 15-ml corex tube. All subsequent steps were conducted at 4° C. The heart was homogenized with a Polytron homogenizer (Brinkmann Instruments Inc., Westbury, N.Y.) operating for 1 second at setting 6.5. Nuclei and unbroken cells were pelleted at 1800 rpm for 10 min. in a Sorvall SS34 rotor. The supernatant was centrifuged for 10 min. at 7000 rpm. The resulting pellet was resuspended in HIM (minus BSA), centrifuged at 1800 rpm and the mitochondria were collected at 7000 rpm. The mitochondrial pellet was resuspended in cMRM (250 mM sucrose, 10 mM HEPES-KOH, 1 mM ATP, 5 mM Na Succinate, 0.08 mM ADP, 2 mM K2HPO4, pH 7.5) at a concentration of 1 mg of mitochondrial protein per ml, and adjusted to 1 mM dithiothreitol just before use.
cDNAs were transcribed and translated in the presence of ^35S-methionine in a cell-free rabbit reticulocyte lysate system (Promega Corp., Madison, Wis.) according to the manufacturer's directions. For a standard mitochondrial protein import reaction, 5 μl of translation reaction was incubated with 20 μl of Buffer A (20 mM HEPES-KOH, 10 mM KCl, 2.5 mM MgCl2, 1 mM EDTA, 1 mM EGTA, 1 mM dithiothreitol, pH 7.5) and 25 μl mitochondria or mitoplasts in cMRM (1 mg protein / ml) at 30° C or 37° C. for 30 min. to 2 hours. The import reaction was then layered on a 500 μl cushion of 1×MRM (250 mM sucrose, 10 mM HEPES-KOH, pH 7.5) and centrifuged for 4 min. at top speed in a microfuge at 4° C. For alkali extraction, the mitochondrial pellet was resuspended (0.25 mg protein / ml) in freshly prepared 0.1 M Na2CO3, pH 11.5, and incubated for 30 min. on ice. The membranes were then pelleted in an airfuge (commercially available from Beckman Instruments Canada Inc., Montreal, PQ, Canada) operating for 10 min. at 30 psi. The pellet was analyzed by SDS-PAGE and fluorography. […]

[2] = system: caspases of KB apoptotic cell extract (24 kDa PARP cleavage product); experiment: Poly(ADP ribosyl) polymerase (PARP) cleavage by KB apoptotic cell extract; type: biochemical, human; parameters: ability of the extract to drive PARP cleavage: dose or concentration left out as unconfirmed
Method: In FIG. 3C, ^35S-labeled transcription-translation product of PARP cDNA in reticulocyte lysate (5% by volume) was incubated with (FIG. 3C, lanes 2 and 3) or without (FIG. 3C, lane 1) […] apoptotic cytosol protein in a total volume of […], in the presence (FIG. 3C, lane 3) or absence (FIG. 3C, lanes 1 and 2) of 1 mM dATP, and equivalent portions analyzed for the appearance of the 24 kDa cleavage product of poly(ADP ribosyl) polymerase (24 K PARP) by 12% SDS PAGE and fluorography.
Extract was prepared at 4° C. according to the procedure of Liu et al. (supra) with some minor modifications. Briefly, human KB epithelial cells were harvested in PBS containing 1.3 mM Na citrate and 0.6 mM EDTA. The cell pellet was washed in Buffer A/ext (50 mM PIPES, 50 mM KCl, 5 mM EGTA, 2 mM MgCl2, 1 mM dithiothreitol, 20 μM cytochalasin B, pH 7.4), then resuspended in an equal volume of Buffer A/ext. The cells were disrupted by 5 cycles of freeze-thaw interspersed by 5 strokes with a Wheaton glass homogenizer fitted with a B pestle, and centrifuged at […] for 1 hour in a Beckman Ti75 rotor. The resulting supernatant contained 10 mg protein / ml. […]

COS-7 and CHO cells = experiment: Immunofluorescence microscopy with anti-HA antibody of transfected cells; type: cell-based; conditions: 24 hours
From the text: Thus, the enhanced cytotoxicity of HA-BAXΔART compared to HA-BAX in vivo correlates with inhibition of BAX membrane integration by the ART domain in vitro.

[3] = zVAD-fmk added before dATP and incubation at 37° C.
[4] = extract depleted of cytochrome c by immunoadsorption

Compound: COC(=O)C[C@H](NC(=O)[C@H](C)NC(=O)[C@@H](NC(=O)OCc1ccccc1)C(C)C)C(=O)CF [zVAD-fmk, reference compound] (Cbz-Val-Ala-Asp(OMe)-CH2F)
- BAX integration into mitochondrial membrane in response to IL-3 withdrawal (FL5.12 cells; alkaline-resistant BAX): partly blocked
- recovery of total BAX associated with mitochondria (FL5.12 cells; no alkali extraction): did not significantly influence
- BAX targeting supported by apoptotic high speed cytosol [1, 3]: effectively inhibit
- ability of the extract to drive PARP cleavage [2, 3]: abolished

Compound: BAX: full length murine BAX proapoptotic protein, translated in rabbit reticulocyte lysate
- mitochondrial targeting / membrane integration in vitro ([1]; absence of apoptotic cell extract, resistance to extraction at alkaline pH): failed to target mitochondria

Compound: HA-BAX: hemagglutinin epitope tagged BAX expressed by transfection
- cells expressing the HA-tagged protein (COS-7 and CHO cells): 7.5%

Compound: cytochrome c: cytochrome c protein added to apoptotic cell extract or reticulocyte lysate
- mitochondrial membrane insertion of BAX with additional cytochrome c ([1]; cytochrome c added to apoptotic cytosol): No improvement
- BAX targeting after add-back to cytochrome c depleted extract [1, 4]: re-instated
- BAX targeting with cytochrome c alone ([1]; reticulocyte lysate translation mixtures, no extract): failed to stimulate
- PARP cleavage after add-back to cytochrome c depleted extract [2, 4]: re-instated
